Where two headings read alike, the source gives them in different places.
Tests used:
[1] = system: hind paws of male rats; experiment: Anti-inflammatory effect: acute carragheenin edema method; type: in vivo; conditions: for inhibition in vivo at 100 mg/kg: Rattus norvegicus, read-out: Anti-inf.: edema inhibition rate; for anti-inflammatory effect, inhibition rate (ED50), in words: rat, in vivo
Procedure: The edema was induced by subcutaneous injection of 1% carragheenin suspension in saline to the hind paws of male rats weighting 150 to 180 g. Each sample was orally given at the dosage of 100 mg/kg just before the inoculation of carragheenin.

[2] = system: platelet; experiment: Blood platelet aggregation inhibiting effect (collagen-induced); type: cell-based, rabbits; conditions: 10^-4 mole, collagen inducer, rabbit PRP
From the text: Male rabbits (Japan original white strain 3.3 to 3.6 kg) were anesthetized with Thiopental sodium and blood was sampled from the carotid artery.

[3] = 100 mg/kg oral, carragheenin edema, male rats (Table 2')

SMILES	inhibition in vivo at 100 mg/kg [1, 3]	further results
CCCCOc1ccc(C(=O)c2ccc(Cl)cc2)cc1 [compound 137]	16.7%	
CCCCCCc1ccc(C(=O)c2ccc(C)cc2C)cc1 [Active ingredient No. 4]		Blood platelet agg. inh.: percentage inhibition of platelet aggregation [2]: 20.5%
CCCCc1ccc(C(=O)c2ccc(F)cc2)cc1 [compound 127]	58.8%	
CCCCCc1ccc(C(=O)c2cccc(F)c2)cc1 [compound 124]	23.5%	
CC(C)Cc1ccc(C(=O)c2ccccc2F)cc1 [compound 118]	32.7%	
CCCCCCCCc1ccc(C(=O)c2ccccc2I)cc1 [compound 157]	37.4%	
Cc1ccc(C(=O)c2ccccc2Cl)c(C)c1 [compound 135]	37.2%	
Cc1ccc(C(=O)c2cccc(I)c2)c(C)c1 [compound 162]	13%	
CCCCCCCCc1ccc(C(=O)c2ccc(Br)cc2)cc1 [compound 151]	15.3%	
Cc1cc(C)c(C(=O)c2ccccc2Br)c(C)c1 [compound 147]	20.4%	
Cc1ccc(C(=O)c2ccc(F)cc2)c(C)c1 [compound 130]	37.8%	
CCCCCCCCc1ccc(C(=O)c2ccccc2Cl)cc1 [compound 134]	35.1%	
COc1ccc(C(=O)c2ccccc2F)cc1 [compound 116]	59.8%	
CCCc1ccc(C(=O)c2ccccc2Br)cc1 [compound 142]	38.9%	
Cc1ccc(C(=O)c2cccc(Br)c2)c(C)c1 [compound 149]	42.2%	
CCCCCc1ccc(C(=O)c2ccccc2I)cc1 [compound 156]	43%	
CCCCc1ccc(C(=O)c2ccccc2Br)cc1 [compound 143]	45.4%	

SMILES	inhibition in vivo at 100 mg/kg [1, 3]	further results
CCCCc1ccc(C(=O)c2ccccc2I)cc1 [compound 155]	31.8%	
Cc1cc(C)c(C(=O)c2cccc(F)c2)c(C)c1 [compound 125]	18.1%	
Cc1cc(C)c(C(=O)c2ccccc2I)c(C)c1 [compound 159]	15.9%	
Cc1ccc(C(=O)c2ccc(Br)cc2)c(C)c1 [compound 152]	22.6%	
CCC(C)(C)c1ccc(C(=O)c2ccccc2F)cc1 [compound 122]	39.3%	
CCC(C)c1ccc(C(=O)c2ccccc2F)cc1 (stereo not shown) [compound 119]	60.7%	
CCCCc1ccc(C(=O)c2cccc(I)c2)cc1 [compound 160]	10.8%	
CCCc1ccc(C(=O)c2cccc(Cl)c2)cc1 [compound 139]	11.7%	
CCCCCc1ccc(C(=O)c2ccccc2Br)cc1 [compound 144]	50%	
Cc1ccc(C(=O)c2ccc(I)cc2)c(C)c1 [compound 165]	19.2%	
CCCCCCCCc1ccc(C(=O)c2cccc(Br)c2)cc1 [compound 148]	36.3%	
CCCc1ccc(C(=O)c2ccc(Br)cc2)cc1 [compound 150]	14%	
Cc1ccc(C(=O)c2ccccc2I)c(C)c1 [compound 158]	32.7%	
CCCCCCCCc1ccc(C(=O)c2cccc(Cl)c2)cc1 [compound 141]	13.8%	
CCCCCc1ccc(C(=O)c2ccccc2F)cc1 [Active ingredient No. 9, 2-Fluoro-4'-n-amyl-benzophenone]		anti-inflammatory effect, inhibition rate (ED50), in words [1]: especially high inhibition rate (ED50)
Cc1cc(C)c(C(=O)c2ccccc2F)c(C)c1 [Active ingredient No. 11, 2-Fluoro-2',4',6'-trimethyl-benzophenone]		anti-inflammatory effect, inhibition rate (ED50), in words [1]: especially high inhibition rate (ED50)
CCCCCCCCc1ccc(C(=O)c2cccc(I)c2)cc1 [compound 161]		inhibition in vivo at 100 mg/kg ([1]; po): 20.9%

Source: US4145444A, “Anti-inflammatory agent of benzoyl derivative” (priority 1977, dated 1979)
